The values below come from patent US6605620B1, “Cyclic amine compounds and pharmaceutical composition containing the same” (Kowa Co., Ltd., priority 2001, dated 2003).

Each structure is given as a SMILES string. pIC50: −log10 of the molar value. Structures can show the parent of a compound that is named as a salt.

One test deals with U937 cells adhered to HUVEC stimulated by TNFα. Put plainly: Inhibitory effect on cell adhesion (U937 adhesion to TNFα-stimulated HUVEC). Format: cell-based, human. Conditions: Homo sapiens; U937 adhesion to TNFα-stimulated HUVEC; fluorescence (PKH2) readout. Here is the method: The test was conducted by reference to the method by Ross et al. (J. Biol. Chem., 267 8537-8543 (1992)). More specifically, after human umbilical venous endothelial cells (HUVEC) were cultured on a 48-well plate to confluent growth, TNFα was added thereto. Upon elapsed time of 5 hours after the addition, U937, which was a human monocytic/histocytic cell fluorescence-labeled with PKH2 (product of Sigma-Aldrich Co., Ltd.), was added in a proportion of 1×10^6 cells per well. After the plate was left at rest at room temperature for 1 hour, unadhered U937 was washed out and lysed in 1% Triton X-100 to measure a remaining fluorescence intensity (excitation wavelength: 480 nm; measuring wavelength: 530 nm). HUVEC and U937 were cultured in EGM-2 (product of Sanko Junyaku K. K.) and 10% FCS-containing RPMI1640, respectively. Each test agent was added to HUVEC upon the addition of TNFα and to U937 24 hours prior to the cell adhesion test. The inhibitory activity was calculated out as IC50 value after inhibitory ratio at each concentration of test compounds was determined. The inhibitory ratio was calculated according to the equation […], wherein A is the number of U937 cells adhered to HUVEC stimulated by TNFα when no test agent was added, B is the number of U937 cells adhered to HUVEC not stimulated by TNFα when no test agent was added, and C is the number of U937 cells adhered to HUVEC stimulated by TNFα when the test agent was added. As control compounds, Test Compound 1 described in Japanese Patent Application Laid-Open No. 9-143075 and dilazep described in Japanese Patent Application Laid-Open No. 11-92382 were simultaneously evaluated.
One may read the pIC50 as −log10 of the IC50, conventionally taken in molar units. For the compound `COc1cc(C(=O)OCCCN2CCCN(CCCOC(=O)c3cc(OC)c(OC)c(OC)c3)CC2)cc(OC)c1OC` [Dilazep, dilazep, reference compound], the negative-log IC50 (pIC50) is below 5.00. On the same count and under the same terms, the result for `COc1cc(-c2cc(CN3CC[C@H](N(C)Cc4ccnc(-c5cc(OC)c(OC)c(OC)c5)c4)C3)ccn2)cc(OC)c1OC` [Example 3, (3S)-3-[N-Methyl-N-[[2-(3,4,5-trimethoxyphenyl)pyridin-4-yl]methyl]amino]-1-[[2-(3,4,5-trimethoxyphenyl)pyridin-yl]methyl]pirrolidine Tertrahydrochloride] reads 6.52. The same measure, in the same setting: the result for `COc1cc(-c2cc(CNC3CCN(Cc4ccnc(-c5cc(OC)c(OC)c(OC)c5)c4)CC3)ccn2)cc(OC)c1OC` [Example 5, 1-[[2-(3,4,5-Trimethoxyphenyl)pyridin-4-yl]methyl]-4-[[2-(3,4,5-trimethoxyphenyl)pyridin-4-yl]methylamino]piperidine Difumalate] reads 6.70; that for `COc1cc(-c2cncc(CN(C)C3CCN(Cc4ccnc(-c5cc(OC)c(OC)c(OC)c5)c4)CC3)c2)cc(OC)c1OC` [Example 7, 4-[N-Methyl-N-[[5-(3,4,5-trimethoxyphenyl)pyridin-3-yl]methyl]amino]-1-[[2-(3,4,5-trimethoxyphenyl)pyridin-4-yl]methyl]piperidine Difumarate], 6.52; that for `COc1ccc(N(Cc2ccnc(-c3cc(OC)c(OC)c(OC)c3)c2)C2CCN(Cc3ccnc(-c4cc(OC)c(OC)c(OC)c4)c3)CC2)cc1` [Example 10, 4-[N-(4-Methoxyphenyl)-N-[[2-(3,4,5-trimethoxypheny)pyridin-4-yl]methyl]amino]-1-[[2-(3,4,5-trimethoxyphenyl)pyridin-4-yl]methyl]piperidine Trihydrochloride], 7.40.

`COc1ccc(N(Cc2cncc(-c3cc(OC)c(OC)c(OC)c3)c2)C2CCN(Cc3ccnc(-c4cc(OC)c(OC)c(OC)c4)c3)CC2)cc1` [Example 13, 4-[N-(4-Methoxyphenyl)-N-[[5-(3,4,5-trimethoxyphenyl)pyridin-3-yl]methyl]amino]-1-[[2-(3,4,5-trimethoxyphenyl)pyridin-4-yl]methyl]piperidine Trihydrochloride] gave a negative-log IC50 (pIC50) of 7.52. This pIC50 and that of the compound before are within 0.2 log units of each other. Still for that read-out and setting: to `COc1cc(-c2cc(CN3CCC(N(Cc4ccccc4)Cc4ccnc(-c5cc(OC)c(OC)c(OC)c5)c4)CC3)ccn2)cc(OC)c1OC` [Example 16, 4-[N-Benzyl-N-[[2-(3,4,5-trimethoxyphenyl)pyridin-4-yl]methyl]amino]-1-[[2-(3,4,5-trimethoxyphenyl)pyridin-4-yl]methyl]piperidine Tetrahydrochloride] belongs 6.52; to `COc1cc(-c2cncc(CN(Cc3ccccc3)C3CCN(Cc4ccnc(-c5cc(OC)c(OC)c(OC)c5)c4)CC3)c2)cc(OC)c1OC` [Example 19, 4-[N-Benzyl-N-[[5-(3,4,5-trimethoxypheny)pyridin-3-yl]methyl]amino]-1-[[2-(3,4,5-trimethoxyphenyl)pyridin-4-yl]methyl]piperidine Tetrahydrochloride], 6.52. Same read-out and setting: the result for `COc1cc(OC)cc(N(Cc2ccnc(-c3cc(OC)c(OC)c(OC)c3)c2)C2CCN(Cc3ccnc(-c4cc(OC)c(OC)c(OC)c4)c3)CC2)c1` [Example 23, 4-[N-(3,5-Dimethoxyphenyl)-N-[[2-(3,4,5-trimethoxyphenyl)pyridin-4-yl]methyl]amino]-1-[[2-(3,4,5-trimethoxyphenyl)pyridin-4-yl]methyl]piperidine Trihydrochloride] reads 7.52. Same read-out and setting: the result for `COc1cc(-c2cc(CN3CCC(N(Cc4ccnc(-c5cc(OC)c(OC)c(OC)c5)c4)c4ccc5c(c4)OCO5)CC3)ccn2)cc(OC)c1OC` [Example 29, 4-[N-(3,4-Methylenedioxyphenyl)-N-[[2-(3,4,5-trimethoxyphenyl)pyridin-4-yl]methyl]amino]-1-[[2-(3,4,5-trimethoxyphenyl)pyridin-4-yl]methyl]piperidine Trihydrochloride] reads 7.52. With `COc1cc(-c2cc(CN3CCC(N(C)Cc4ccnc(-c5cc(OC)c(OC)c(OC)c5)c4)CC3)ccn2)cc(OC)c1OC` [Example 36, 4-[N-Methyl-N-[[2-(3,4,5-trimethoxyphenyl)pyridin-4-yl]methyl]amino]-1-[[2-(3,4,5-trimethoxyphenyl)pyridin-4-yl]methyl]piperidine Tetrahydrochloride], the pIC50 is 6.70. The same measure, in the same setting: to `COc1cc(-c2cc(CN3CCC(N(Cc4ccnc(-c5cc(OC)c(OC)c(OC)c5)c4)c4ccccc4)CC3)ccn2)cc(OC)c1OC` [Example 42, 4-[N-Phenyl-N-[[2-(3,4,5-trimethoxyphenyl)pyridin-4-yl]methyl]amino]-1-[[2-(3,4,5-trimethoxyphenyl)pyridin-4-yl]methyl]piperidine Trihydrochloride] belongs 7.15. Same read-out and setting: to `COc1ccc(N(Cc2ccnc(-c3cc(OC)c(OC)c(OC)c3)c2)C2CCN(Cc3cncc(-c4cc(OC)c(OC)c(OC)c4)c3)CC2)cc1` [Example 67, 4-[N-(4-Methoxyphenyl)-N-[[2-(3,4,5-trimethoxyphenyl)pyridin-4-yl]methyl]amino]-1-[[3-(3,4,5-trimethoxyphenyl)pyridin-5-yl]methyl]piperidine Trihydrochloride] belongs 7.05. On the same count and under the same terms, to `COc1cccc(N(Cc2ccnc(-c3cc(OC)c(OC)c(OC)c3)c2)C2CCN(Cc3ccnc(-c4cc(OC)c(OC)c(OC)c4)c3)CC2)c1` [Example 88, 4-[N-(3-Methoxyphenyl)-N-[[2-(3,4,5-trimethoxyphenyl)pyridin-4-yl]methyl]amino]-1-[[2-(3,4,5-trimethoxyphenyl)pyridin-4-yl]methyl]piperidine Trihydrochloride] belongs 7.15; to `COc1cccc(N(Cc2ccnc(-c3cc(OC)c(OC)c(OC)c3)c2)C2CCN(Cc3cncc(-c4cc(OC)c(OC)c(OC)c4)c3)CC2)c1` [Example 89, 4-[N-(3-Methoxyphenyl)-N-[[2-(3,4,5-trimethoxyphenyl)pyridin-4-yl]methyl]amino]-1-[[3-(3,4,5-trimethoxyphenyl)pyridin-5-yl]methyl]piperidine Trihydrochloride], 7.05.

Compound `COc1cc(-c2cc(CN3CCC(N(Cc4ccnc(-c5cc(OC)c(OC)c(OC)c5)c4)c4ccc(SC)cc4)CC3)ccn2)cc(OC)c1OC` [Example 111, 1-[[2-(3,4,5-Trimethoxyphenyl)pyridin-4-yl]methyl]-4-[N-[[2-(3,4,5-trimethoxyphenyl)pyridin-4-yl]methyl]-N-(4-methylthiophenyl)amino]piperidine Trihydrochloride] gave a pIC50 of 7.10.

Take `COc1cc(-c2cc(CN3CCC(N(Cc4ccnc(-c5cc(OC)c(OC)c(OC)c5)c4)c4ccc(F)cc4)CC3)ccn2)cc(OC)c1OC` [Example 157, 4-[N-(4-Fluorophenyl)-N-[[2-(3,4,5-trimethoxyphenyl)pyridin-4-yl]methyl]amino]-1-[[2-(3,4,5-trimethoxyphenyl)pyridin-4-yl]methyl]piperidine Trihydrochloride]: the pIC50 is 7.05.

Still in this test, the particulars now being: examined similar to the Test Example 1 procedure; even at a concentration as high as 10 μM.
On to `c1cc(CNC2CCN(Cc3ccncc3)CC2)ccn1` [Preparation Example 91, 1-(4-Pycolyl)-4-(4-pycolylamino)piperidine Tetrahydrochloride, reference compound], for which the “inhibitory effect on cell adhesion (result in words)” value was “inactive”.
